Results from patent US20140221490A1, “METHODS OF TREATING PAIN” (Hospira, Inc., priority 2011, published 2014).
Values joined by “and” are separate entries in the source; they are usually repeats but may differ in a detail not shown here. Equal entries are not always repeated. “Also recorded” adds a separate entry of the source.

Columns and labels:
[1] = system: acute moderate to severe pain after orthopedic surgery; experiment: Multiple-dose randomized double-blind active- and placebo-controlled trial after orthopedic surgery: efficacy (SPID, pain relief, rescue morphine, patient global evaluation); format: in vivo, human
Procedure: Patients were randomly assigned to diclofenac, ketorolac, or placebo (2:1:1 ratio).
Randomization was stratified by risk group at baseline. The groups were high-risk, non-high-risk, or higher-weight, which was greater than 210 lbs., or 95 kg. Randomization was also stratified by anticipated stay between a long stay, which was longer than 24 hours, versus a shorter stay. The high-risk patients weighed less than 110 lbs.
(§1) The diclofenac formulation was Dyloject™. […] Adverse events (adverse effects) were recorded between surgery and randomization, not just after baseline, in order to distinguish treatment-emergent adverse events.
Patients were encouraged to wait at least 30 minutes after study drug initiation to request morphine.
Patients assessed their pain at baseline and at specified time points through the next 24 hours. Those who remained at the site longer assessed their pain every three hours until discharged. Patients returned for follow-up 5-9 days after baseline, and they received a follow-up telephone call 30-37 days after baseline.
Efficacy analyses were conducted using Statistical Analysis Software®, and unless otherwise noted refer to the intent-to-treat population. The analysis of area under the pain intensity difference curve, pain intensity difference, area under the pain relief curve, patient global evaluation, and amount of rescue medication were based on analysis of covariance (ANCOVA) models, with treatment and center as factors and baseline pain as a covariate. Confidence intervals were based on the pooled standard deviation obtained from an ANCOVA model. Treatment differences were tested with linear contrasts.
All testing of statistical significance was 2-sided unless the test performed was inherently 1-sided. […] The area under the pain relief curve was analyzed similarly.
The proportion of patients attaining at least 30% reduction in pain intensity and the frequency of rescue medication use were analyzed with Cochran-Mantel-Haenszel tests, with center as a stratification variable.
For area under the curve calculations, evaluations after the administration of rescue medication or after withdrawal due to adverse events (adverse effects) or lack of efficacy were imputed in accordance with prespecified rules. For post hoc analyses of pain intensity, an even more conservative and simplified set of imputation rules was applied.
This was a multicenter, multiple-dose, multiple-day, randomized, double-blind, active- and placebo-controlled, parallel-group study.
Assignments were made according to a computer-generated random-number code. Randomization was also stratified by risk cohort (high-risk, non-high-risk, or high-weight [≧95 kg]) at baseline (see FIG. 10), and by anticipated long stay (>24 hours) versus shorter stay, resulting in six strata within the randomization schedule.
Patients in all treatment groups received a bolus IV injection every 6 hours until discharge. […] All study drugs were blinded to the investigator and the patient; dose levels of the individual study treatments were not blinded.
Patients were encouraged to wait at least 30 minutes after study drug initiation to request morphine, to allow primary study drug to begin to exert analgesic effects but were never denied.
The primary efficacy measure was the sum of pain intensity differences (SPID) over five intervals: 0-24, 0-48, 0-72, 0-96, and 0-120 hours which was calculated by summing the difference in pain intensity (by a 0-100 visual analog scale) from baseline at designated timepoints.

[2] = system: patients after orthopedic surgery; experiment: Orthopedic surgery trial: safety (adverse events); format: in vivo, human
Procedure: as §1
Those who remained at the site longer assessed their pain every 3 hours until discharged. […] Adverse events (AEs) were recorded between surgery and randomization, not just after baseline, in order to distinguish treatment-emergent AEs.

[3] = system: patients after abdominal or pelvic surgery; experiment: Abdominal or pelvic surgery trial: safety (adverse events, thrombophlebitis scale); format: in vivo, human
Procedure: Patients returned for a safety follow-up 5-9 days after baseline, and received a follow-up telephone call 30 days post-baseline. Safety assessments included physical examinations, laboratory testing, vital signs, 12-lead ECG, and evaluation of thrombophlebitis at the site of study drug injection using a 6-point scale (Table 5 and FIG. 6). AEs were recorded throughout the study.
The proportion of patients reporting ≧30% reduction from baseline in pain intensity was analyzed with the Cochran-Mantel-Haenszel test with center as a stratification variable. Time to meaningful (≧30%) reduction in pain intensity and time to administration of rescue medication were analyzed with Kaplan-Meier survival analysis techniques. Descriptive statistics were used for AEs, laboratory test results, vital signs, thrombophlebitis, and ECG results. Logistic regression was used to estimate the relative risk of cardiovascular events.

[4] = cited from earlier work
[5] = diclofenac n = 145, ketorolac n = 60

Compound: O=C(c1ccccc1)c1ccc2n1CCC2C(=O)O (stereo not shown) [Ketorolac, ketorolac tromethamine]
- total pain relief vs placebo ([1]; 0-24, 0-48, 0-72, 0-96, 0-120 hours, P<0.0001): significantly better
- mean sum of pain intensity differences (SPID) vs placebo ([1]; all time intervals 0-24 to 0-120 hours, P<0.0001): significantly better; also recorded: significantly greater
- patients rating their drug as “very good” or “excellent” (patient global evaluation) ([1]; at last assessment): 57.6%
- SPID scores vs placebo, higher-weight group ([1]; diclofenac 50 mg, ketorolac 30 mg, all time intervals, P<0.05): better with both diclofenac 50 mg and ketorolac 30 mg compared with placebo
- patients achieving clinically meaningful pain reduction (≧30% reduction in intensity) ([1]; dose by risk cohort, IV every 6 hours): 75%
- amount of morphine used ([1]; elderly patients, low dose (diclofenac 18.75 mg, ketorolac 15 mg)): 14.9 mg
- median time from administration of study drug to administration of rescue medication ([1]; human, in vivo): 137.0 min and 137 min
- time at which pain intensity difference first significantly differed from placebo (onset of analgesia) ([1]; human, in vivo): 30 min
- total rescue morphine requirement ([1]; over the first five days): 18.1 mg
- Acute Renal Failure/Renal Insufficiency [2, 5]: 0 n (%)
- Acute Tubular Necrosis [2, 5]: 0 n (%)
- Anemia [2, 5]: 9 (15.0%) n (%)
- Blood creatine phosphokinase (CPK) increase [2, 5]: 8 (13.3%) n (%)
- Constipation [2, 5]: 6 (10.0%) n (%)
- Contusion [2, 5]: 2 (3.3%) n (%)
- Dizziness [2, 5]: 5 (8.3%) n (%)
- Dysuria (burning, difficulty urinating) [2, 5]: 1 (1.7%) n (%)
- Epistaxis [2, 5]: 0 n (%)
- Fever/increase body temp. [2, 5]: 5 (8.3%) n (%)
- Nausea [2, 5]: 18 (30.0%) n (%)
- Total Bleeding related adverse events [2, 5]: 13 (21.7%) n (%)
- Total GI-Related Adverse Events [2, 5]: 24 (40.0%) n (%)
- Total Renal-Related Adverse Events [2, 5]: 1 (1.7%) n (%)
- Urinary Retention [2, 5]: 0 n (%)
- Vomiting [2, 5]: 6 (10.0%) n (%)
- incidence of bleeding-related adverse effects ([2]; in vivo): 23% and 22%
- serious cardiovascular event: congestive heart failure ([2]; one of 60 patients, not considered treatment-related): 1.7%
- incidence of bleeding-related AEs ([3]; 30 mg): 6.1%
- incidence of cardiovascular AEs ([3]; 30 mg): 6.1%
- incidence of treatment-related AEs ([3]; 30 mg): 23.2%
- Abdominal Hematoma ([3]; 30 mg (n = 82)): 1 (1.2%) n (%)
- Bleeding-related AE: Anemia ([3]; 30 mg (n = 82)): 2 (2.4%) n (%)
- Blood Creatine phosphokinase (CPK) increased ([3]; 30 mg (n = 82)): 12 (14.6%) n (%)
- Constipation ([3]; 30 mg (n = 82)): 8 (9.8%) n (%)
- Diarrhea ([3]; 30 mg (n = 82)): 6 (7.3%) n (%)
- Flatulence ([3]; 30 mg (n = 82)): 22 (26.8%) n (%)
- Headache ([3]; 30 mg (n = 82)): 14 (17.1%) n (%)
- Hematoma ([3]; 30 mg (n = 82)): 0 (0.0%) n (%)
- Incision site complication ([3]; 30 mg (n = 82)): 0 (0.0%) n (%)
- Injection site pain, irritation ([3]; 30 mg (n = 82)): 17 (20.7%) n (%)
- Insomnia ([3]; 30 mg (n = 82)): 7 (8.5%) n (%)
- Nausea ([3]; 30 mg (n = 82)): 22 (26.8%) n (%)
- Number of patients experiencing ≧1 AE ([3]; 30 mg (n = 82)): 72 (87.8%) n (%)
- Pruritus ([3]; 30 mg (n = 82)): 3 (3.7%) n (%)
- Pyrexia ([3]; 30 mg (n = 82)): 9 (11.0%) n (%)
- Rectal Hemorrhage ([3]; 30 mg (n = 82)): 1 (1.2%) n (%)
- Tachycardia ([3]; 30 mg (n = 82)): 4 (4.9%) n (%)
- Thrombophlebitis ([3]; 30 mg (n = 82)): 6 (7.3%) n (%)
- Total patients with a Bleeding-Related AE ([3]; 30 mg (n = 82)): 5 (6.1%) n (%)
- Vaginal Hemorrhage ([3]; 30 mg (n = 82)): 0 (0.0%) n (%)
- Vomiting ([3]; 30 mg (n = 82)): 7 (8.5%) n (%)
- Wound complication ([3]; 30 mg (n = 82)): 1 (1.2%) n (%)
- Wound dehiscence ([3]; 30 mg (n = 82)): 1 (1.2%) n (%)
- Total Patients on Concomitant Anticoagulants with a Bleeding-Related AE ([3]; 30 mg, 49 on anticoagulants): 3 (6.1%) n (%)
- subjects reporting ≧1 bleeding-related AE among subjects receiving anticoagulants ([3]; ketorolac group (3/49), post hoc analysis): 6.1%
- Vd, volume of distribution [4]: 0.21 L/kg
- Prot. bind., drug fraction bound to protein (fP) ([4]; plasma): 99%
- Cmax ([4]; read-out: Cmax, maximum drug concentration in plasma, based on the drug's pharmacokinetics and administration of a normal drug dose): 1800 nM
